According to US20070037887A1, “Blockade of mtor to prevent a hormonal adaptive response” (University of Virginia Patent Foundation, priority 2003, published 2007):

Test system: LTED cells
Assay: Growth of LTED cells (cell number)
Assay type: cell-based, human
Description: FIG. 3 represents the effect of FTS on the growth of MCF-7, LTED, and MCF-10A cells. Sixty thousand cells were plated into each well of 6-well plates. Two days later, the cells were treated in triplicate for five days with FTS at indicated concentrations. The results (mean±S.E.) are expressed as percentage of the vehicle control.
FIG. 4 represents the effect of FTS on E2 stimulated growth of MCF-7 and LTED cells. Thirty thousand cells were plated into each well of 6-well plates. Two days later, the cells were re-fed with IMEM containing 5% DCC-FBS. After another two days, cells were treated in triplicate with estradiol (10^−10 M) plus various concentrations of FTS for five days. In LTED cells, fulvestrant (10^−9 M) was included in all wells to block the effect of residual estrogen in the culture. The results (mean±S.E.) are expressed as percentage of cell number from the wells containing E2.
The effect of FTS on growth of breast cancer cells was examined in two different cell lines: MCF-7 wild type cells which represent a model for untreated breast cancer and LTED cells as a model of cells adapting to endocrine treatment. Cells were grown in their culture media and treated with FTS for five days. […] The effect of FTS on E2-stimulated growth of MCF-7 and LTED cells was the examined. […]

**Q.** With `CC(C)=CCC/C(C)=C/CC/C(C)=C/CSc1ccccc1C(=O)O` [FTS, farnesylthiosalicylic acid] as the compound, how does the E2-stimulated growth (E2 10^−10 M in the presence of fulvestrant 10^−9 M) read?
**A.** inhibited

**Q.** What about the basal growth (culture media, five days) of the same compound?
**A.** dose-dependently inhibited
